ChEMBL document CHEMBL1131964, “Preparation and receptor binding affinities of cyclic C-terminal neurotensin (8-13) and (9-13) analogues” (Bioorg Med Chem Lett, 1999)

Biological target: Neurotensin receptor (Homo sapiens, UniProt O95665+P30989)
Test: Binding ability to compete with [125I]Tyr3-NT (0.15 nM) for human NT receptors cloned in CHO cells.
Type: cell-based

| SMILES | Ki |
| --- | --- |
| CC[C@@H](C)[C@@H](NC(=O)[C@@H]1Cc2ccc(cc2)OCCCCCC(=O)N2CCC[C@H]2C(=O)N1)C(=O)N[C@@H](CC(C)C)C(=O)O | > 2000 nM |
| CC[C@@H](C)[C@@H](NC(=O)[C@@H]1Cc2ccc(cc2)OCCCCCC(=O)N[C@H](CCCN=C(N)N)C(=O)N2CCC[C@H]2C(=O)N1)C(=O)N[C@@H](CC(C)C)C(=O)O | 450 nM |
| CC[C@H](C)[C@H](NC(=O)[C@H](Cc1ccc(O)cc1)NC(=O)[C@@H]1CCCN1C(=O)[C@@H](N)CCCN=C(N)N)C(=O)N[C@@H](CC(C)C)C(=O)O | 28 nM |
